Reference: ChEMBL document CHEMBL1671637, “Development, stability, and molecular mechanisms of macrolide resistance in Campylobacter jejuni” (2008)
≈ marks a conversion by molar mass, not a printed value.

Key:
Format in all cases: functional
[1] = test system: Campylobacter jejuni; assay: Antimicrobial activity against Campylobacter jejuni DC20 harboring protein L4 G74D mutant by agar dilution method
[2] = test system: Campylobacter jejuni; assay: Antimicrobial activity against Campylobacter jejuni DC10 harboring protein L4 G57D mutant by agar dilution method
[3] = test system: Campylobacter jejuni; assay: Antimicrobial activity against Campylobacter jejuni DC39 harboring protein L4 G74D and G57V mutant by agar dilution method
[4] = test system: Campylobacter jejuni; assay: Antimicrobial activity against Campylobacter jejuni JL288 harboring 23S rRNA A2074C mutant selected at 4 to 16 times MIC after 3 to 4 days by agar dilution method
[5] = test system: Campylobacter jejuni; assay: Antimicrobial activity against Campylobacter jejuni DC2 infected in 3 days old chicken by agar dilution method
[6] = test system: Campylobacter jejuni; assay: Antimicrobial activity against Campylobacter jejuni JL283 selected at 4 to 16 times MIC after 3 to 4 days by agar dilution method
[7] = test system: Campylobacter jejuni; assay: Antimicrobial activity against Campylobacter jejuni JL285 selected at 4 to 16 times MIC after 3 to 4 days by agar dilution method
[8] = test system: Campylobacter jejuni; assay: Antimicrobial activity against Campylobacter jejuni JL300 harboring protein L22 with insertion of amino acid TSH at position 98 selected at 4 to 16 times MIC after 3 to 4 days by agar dilution method
[9] = test system: Campylobacter jejuni; assay: Antimicrobial activity against Campylobacter jejuni JL277 selected at 4 to 16 times MIC after 3 to 4 days by agar dilution method
[10] = test system: Campylobacter jejuni; assay: Antimicrobial activity against Campylobacter jejuni DC33 harboring 23S rRNA A2074G mutant by agar dilution method
[11] = test system: Campylobacter jejuni; assay: Antimicrobial activity against Campylobacter jejuni JL308 harboring protein L22 with insertion of amino acid TSH at position 98 selected at 4 to 16 times MIC after 3 to 4 days by agar dilution method
[12] = test system: Campylobacter jejuni; assay: Antimicrobial activity against Campylobacter jejuni DC2 infected in 15 days old chicken by agar dilution method
[13] = test system: Campylobacter jejuni; assay: Antimicrobial activity against Campylobacter jejuni DC5 harboring protein L4 G74D mutant by agar dilution method
[14] = test system: Campylobacter jejuni; assay: Antimicrobial activity against Campylobacter jejuni JL287 harboring 23S rRNA A2074C mutant selected at 4 to 16 times MIC after 3 to 4 days by agar dilution method
[15] = test system: Campylobacter jejuni; assay: Antimicrobial activity against Campylobacter jejuni DC12 harboring protein L4 G74D mutant by agar dilution method
[16] = test system: Campylobacter jejuni; assay: Antimicrobial activity against Campylobacter jejuni JL279 selected at 4 to 16 times MIC after 3 to 4 days by agar dilution method
[17] = test system: Campylobacter jejuni; assay: Antimicrobial activity against Campylobacter jejuni DC23 harboring protein L4 G74D mutant by agar dilution method
[18] = test system: Campylobacter jejuni; assay: Antimicrobial activity against Campylobacter jejuni JL284 selected at 4 to 16 times MIC after 3 to 4 days by agar dilution method
[19] = test system: Campylobacter jejuni; assay: Antimicrobial activity against Campylobacter jejuni JL297 selected at 4 to 16 times MIC after 3 to 4 days by agar dilution method
[20] = test system: Campylobacter jejuni; assay: Antimicrobial activity against Campylobacter jejuni JL298 selected at 4 to 16 times MIC after 3 to 4 days by agar dilution method
[21] = test system: Campylobacter jejuni; assay: Antimicrobial activity against Campylobacter jejuni harboring mutation in cmeB by agar dilution method relative to wild type Campylobacter jejuni
[22] = test system: Campylobacter jejuni; assay: Antimicrobial activity against tylosin pre-exposed compound-resistant Campylobacter jejuni
[23] = test system: Campylobacter jejuni; assay: Antimicrobial activity against Campylobacter jejuni DC16 harboring protein L4 G74D mutant by agar dilution method
[24] = test system: Campylobacter jejuni; assay: Antimicrobial activity against Campylobacter jejuni JL307 harboring protein L22 with insertion of amino acid TSH at position 98 selected at 4 to 16 times MIC after 3 to 4 days by agar dilution method
[25] = test system: Campylobacter jejuni; assay: Antimicrobial activity against Campylobacter jejuni DC9 harboring 23S rRNA A2074G mutant by agar dilution method
[26] = test system: Campylobacter jejuni; assay: Antimicrobial activity against Campylobacter jejuni DC32 harboring 23S rRNA A2074G mutant by agar dilution method
[27] = test system: Campylobacter jejuni; assay: Antimicrobial activity against Campylobacter jejuni JL303 harboring protein L22 with insertion of amino acid TSH at position 98 selected at 4 to 16 times MIC after 3 to 4 days by agar dilution method
[28] = test system: Campylobacter jejuni; assay: Antimicrobial activity against Campylobacter jejuni JL292 selected at 4 to 16 times MIC after 3 to 4 days by agar dilution method
[29] = test system: Campylobacter jejuni; assay: Antimicrobial activity against Campylobacter jejuni JL286 selected at 4 to 16 times MIC after 3 to 4 days by agar dilution method
[30] = test system: Campylobacter jejuni; assay: Antimicrobial activity against Campylobacter jejuni JL295 selected at 2 ug/ml after 3 to 4 days by agar dilution method
[31] = test system: Campylobacter jejuni; assay: Antimicrobial activity against Campylobacter jejuni DC34 harboring protein L4 G74D mutant by agar dilution method
[32] = test system: Campylobacter jejuni; assay: Antimicrobial activity against Campylobacter jejuni DC22 harboring protein L4 G74D mutant by agar dilution method
[33] = test system: Campylobacter jejuni; assay: Antimicrobial activity against Campylobacter jejuni DC36 harboring protein L4 G74D mutant by agar dilution method
[34] = test system: Campylobacter jejuni; assay: Antimicrobial activity against Campylobacter jejuni DC35 harboring protein L4 G74D mutant by agar dilution method
[35] = test system: Campylobacter jejuni; assay: Antimicrobial activity against Campylobacter jejuni JL304 harboring protein L22 with insertion of amino acid TSH at position 98 selected at 4 to 16 times MIC after 3 to 4 days by agar dilution method
[36] = test system: Campylobacter jejuni; assay: Antimicrobial activity against Campylobacter jejuni JL296 selected at 4 to 16 times MIC after 3 to 4 days by agar dilution method
[37] = test system: Campylobacter jejuni; assay: Antimicrobial activity against Campylobacter jejuni JL290 harboring protein L22 with insertion of amino acid TSH at position 98 selected at 8 ug/ml after 3 to 4 days by agar dilution method
[38] = test system: Campylobacter jejuni; assay: Antimicrobial activity against Campylobacter jejuni DC3 harboring 23S rRNA A2074G mutant by agar dilution method
[39] = test system: Campylobacter jejuni; assay: Antimicrobial activity against Campylobacter jejuni DC18 harboring protein L4 G74D mutant by agar dilution method

Question: For `CC[C@H]1OC(=O)[C@H](C)[C@@H](O[C@H]2C[C@@](C)(OC)[C@@H](O)[C@H](C)O2)[C@H](C)[C@@H](O[C@@H]2O[C@H](C)C[C@H](N(C)C)[C@H]2O)[C@](C)(O)C[C@@H](C)C(=O)[C@H](C)[C@@H](O)[C@]1(C)O` [ERYTHROMYCIN], which MIC [1] is on record?
Answer: 16 µg/mL (≈ 21.8 µM)

Question: What about the MIC [2] of the same molecule?
Answer: 16 µg/mL (≈ 21.8 µM)

Question: What about the MIC [3] of the same molecule?
Answer: 256 µg/mL (≈ 349 µM)

Question: And the MIC [4]?
Answer: > 512 µg/mL

Question: What about the MIC [5] of the same molecule?
Answer: 32 µg/mL (≈ 43.6 µM)

Question: What about the MIC [6] of the same molecule?
Answer: 64 µg/mL (≈ 87.2 µM)

Question: What about the MIC [7] of the same molecule?
Answer: 128 µg/mL (≈ 174 µM)

Question: And the MIC [8]?
Answer: 128 µg/mL (≈ 174 µM)

Question: And the MIC [9]?
Answer: 8 µg/mL (≈ 10.9 µM)

Question: And the MIC [10]?
Answer: > 512 µg/mL

Question: And the MIC [11]?
Answer: 64 µg/mL (≈ 87.2 µM)

Question: What about the MIC [12] of the same molecule?
Answer: 32 µg/mL (≈ 43.6 µM)

Question: What about the MIC [13] of the same molecule?
Answer: 8 µg/mL (≈ 10.9 µM)

Question: What about the MIC [14] of the same molecule?
Answer: > 512 µg/mL

Question: What about the MIC [15] of the same molecule?
Answer: 64 µg/mL (≈ 87.2 µM)

Question: And the MIC [16]?
Answer: 8 µg/mL (≈ 10.9 µM)

Question: And the MIC [17]?
Answer: 64 µg/mL (≈ 87.2 µM)

Question: And the MIC [18]?
Answer: 128 µg/mL (≈ 174 µM)

Question: And the MIC [19]?
Answer: 8 µg/mL (≈ 10.9 µM)

Question: And the MIC [20]?
Answer: 8 µg/mL (≈ 10.9 µM)

Question: And the “fold change (FC)” value [21]?
Answer: 8

Question: What about the MIC [22] of the same molecule?
Answer: > 512 µg/mL

Question: What about the MIC [23] of the same molecule?
Answer: 32 µg/mL (≈ 43.6 µM)

Question: And the MIC [24]?
Answer: 256 µg/mL (≈ 349 µM)

Question: And the MIC [25]?
Answer: > 512 µg/mL

Question: And the MIC [26]?
Answer: > 512 µg/mL

Question: And the MIC [27]?
Answer: 256 µg/mL (≈ 349 µM)

Question: What about the MIC [28] of the same molecule?
Answer: 8 µg/mL (≈ 10.9 µM)

Question: What about the MIC [29] of the same molecule?
Answer: 128 µg/mL (≈ 174 µM)

Question: And the MIC [30]?
Answer: 8 µg/mL (≈ 10.9 µM)

Question: What about the MIC [31] of the same molecule?
Answer: 128 µg/mL (≈ 174 µM)

Question: What about the MIC [32] of the same molecule?
Answer: 32 µg/mL (≈ 43.6 µM)

Question: What about the MIC [33] of the same molecule?
Answer: 128 µg/mL (≈ 174 µM)

Question: What about the MIC [34] of the same molecule?
Answer: 128 µg/mL (≈ 174 µM)

Question: What about the MIC [35] of the same molecule?
Answer: 256 µg/mL (≈ 349 µM)

Question: What about the MIC [36] of the same molecule?
Answer: 8 µg/mL (≈ 10.9 µM)

Question: And the MIC [37]?
Answer: 32 µg/mL (≈ 43.6 µM)

Question: And the MIC [38]?
Answer: > 512 µg/mL

Question: What about the MIC [39] of the same molecule?
Answer: 16 µg/mL (≈ 21.8 µM)
